Assay results published in ChEMBL document CHEMBL1909046, “DrugMatrix in vitro pharmacology data”.

Experiments:
[1] = target: 5-hydroxytryptamine receptor 2B (Homo sapiens, UniProt P41595); format: cell membranes, CHO-K1, Membrane; settings: for Ki: read-out: Ki; as to all read-outs here: in other assays of this panel Not Active means under 50% inhibition at 10 µM
[2] = DRUGMATRIX: Sigma2 radioligand binding (ligand: [3H] Ifenprodil); format: cell membranes, Rattus norvegicus, Wistar, Brain, Membrane; settings: Not Active = under 50% inhibition at 10 µM
[3] = DRUGMATRIX: Calcium Channel Type L, Phenylalkylamine radioligand binding (ligand: [3H] (-)-Desmethoxyverapamil (D-888)); format: cell membranes, Rattus norvegicus, Wistar, Brain, Membrane; settings: Not Active = under 50% inhibition at 10 µM
[4] = DRUGMATRIX: Nicotinic Acetylcholine radioligand binding (ligand: [125I] Epibatidine); format: cell membranes, Membrane; settings: imr-32; Not Active = under 50% inhibition at 10 µM
[5] = target: T1, Adenosine receptor A1 (Homo sapiens, UniProt P30542); format: cell membranes, CHO, Membrane; settings: cho;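 also: radioligand binding assay at the adenosine A1 receptor, with DPCPX serving as the labelled ligand; in other assays of this panel Not Active means under 50% inhibition at 10 µM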
T1 sequence (P30542 whole entry): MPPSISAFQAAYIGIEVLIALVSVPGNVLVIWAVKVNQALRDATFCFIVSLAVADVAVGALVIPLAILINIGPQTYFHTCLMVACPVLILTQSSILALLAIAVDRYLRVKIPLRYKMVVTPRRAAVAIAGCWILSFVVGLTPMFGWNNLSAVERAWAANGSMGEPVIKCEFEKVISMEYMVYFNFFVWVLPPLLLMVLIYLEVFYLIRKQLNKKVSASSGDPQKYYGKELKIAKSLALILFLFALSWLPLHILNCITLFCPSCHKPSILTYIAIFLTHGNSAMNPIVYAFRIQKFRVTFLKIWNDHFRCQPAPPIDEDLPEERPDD

[6] = target: Cytochrome P450 2C9 (Homo sapiens, UniProt P11712); settings: bti-tn-5b1-4; also: in other assays of this panel Not Active means under 50% inhibition at 10 µM
Sequence of Cytochrome P450 2C9 (P11712 whole entry): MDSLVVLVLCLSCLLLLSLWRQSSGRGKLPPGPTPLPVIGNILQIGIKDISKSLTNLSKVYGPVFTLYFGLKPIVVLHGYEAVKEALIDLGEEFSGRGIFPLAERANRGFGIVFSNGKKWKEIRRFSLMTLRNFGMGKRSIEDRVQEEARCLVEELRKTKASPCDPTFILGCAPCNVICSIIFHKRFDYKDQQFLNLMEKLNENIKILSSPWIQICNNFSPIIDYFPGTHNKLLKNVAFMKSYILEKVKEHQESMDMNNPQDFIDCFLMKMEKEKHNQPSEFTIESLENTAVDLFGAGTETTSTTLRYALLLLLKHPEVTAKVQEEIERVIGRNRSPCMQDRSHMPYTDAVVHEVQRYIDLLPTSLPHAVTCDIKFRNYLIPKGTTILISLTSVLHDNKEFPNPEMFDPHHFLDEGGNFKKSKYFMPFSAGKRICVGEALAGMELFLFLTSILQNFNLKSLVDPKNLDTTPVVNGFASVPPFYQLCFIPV

Sequence of 5-hydroxytryptamine receptor 2B (P41595 whole entry): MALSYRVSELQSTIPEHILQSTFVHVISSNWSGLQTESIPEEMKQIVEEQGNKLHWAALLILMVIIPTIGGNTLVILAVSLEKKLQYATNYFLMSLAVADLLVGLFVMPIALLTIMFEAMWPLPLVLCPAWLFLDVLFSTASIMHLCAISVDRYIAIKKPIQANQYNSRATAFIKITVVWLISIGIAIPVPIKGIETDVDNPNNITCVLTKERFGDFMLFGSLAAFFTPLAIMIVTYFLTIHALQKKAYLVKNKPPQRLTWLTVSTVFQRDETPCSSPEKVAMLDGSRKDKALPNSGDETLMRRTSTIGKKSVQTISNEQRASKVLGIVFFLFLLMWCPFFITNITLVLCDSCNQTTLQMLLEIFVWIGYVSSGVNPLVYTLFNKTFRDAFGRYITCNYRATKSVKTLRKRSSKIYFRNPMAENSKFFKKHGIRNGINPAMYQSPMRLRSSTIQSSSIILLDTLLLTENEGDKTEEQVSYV

SMILES | IC50 ([1]; cho-k1) | IC50 [2] | Ki [2] | IC50 [3] | Ki [3] | IC50 [4] | Ki [4] | IC50 [5] | IC50 [6] | Ki [6] | IC50 ([3]; read-out: IC50) [nM] | Ki ([3]; read-out: Ki) [nM] | IC50 ([1]; read-out: IC50) [nM] | Ki [1] [nM]
CCOc1nc2cccc(C(=O)O)c2n1Cc1ccc(-c2ccccc2-c2nnn[nH]2)cc1 | Not Active | Not Active | Not Active | Not Active | Not Active | Not Active | Not Active | Not Active |  |  |  |  |  | 
O=C(O)CCCc1cccs1 | Not Active | Not Active | Not Active | Not Active | Not Active | Not Active | Not Active | Not Active | Not Active | Not Active |  |  |  | 
COc1ccccc1N | Not Active | Not Active | Not Active | Not Active | Not Active | Not Active | Not Active | Not Active | Not Active | Not Active |  |  |  | 
O=C(c1ccccc1F)N1CCC(Cc2ccccc2)CC1 | Not Active | Not Active | Not Active | Not Active | Not Active | Not Active | Not Active | Not Active |  |  |  |  |  | 
Cc1c(O)cccc1C(=O)N[C@@H](CSc1ccccc1)[C@H](O)CN1C[C@H]2CCCC[C@H]2C[C@H]1C(=O)NC(C)(C)C | Not Active | Not Active | Not Active |  |  | Not Active | Not Active | Not Active | Not Active | Not Active | 18400 | 17900 |  | 
CC(O)COC[C@H]1O[C@@H]2O[C@H]3[C@H](O)[C@@H](O)[C@@H](O[C@H]4[C@H](O)[C@@H](O)[C@@H](O[C@H]5[C@H](O)[C@@H](O)[C@@H](O[C@H]6[C@H](O)[C@@H](O)[C@@H](O[C@H]7[C@H](O)[C@@H](O)[C@@H](O[C@H]8[C@H](O)[C@@H](O)[C@@H](O[C@H]1[C@H](O)[C@H]2O)O[C@@H]8COCC(C)O)O[C@@H]7COCC(C)O)O[C@@H]6COCC(C)O)O[C@@H]5COCC(C)O)O[C@@H]4COCC(C)O)O[C@@H]3COCC(C)O (stereo partly drawn) [2-HYDROXYPROPYL-BETA-CYCLODEXTRIN] |  | Not Active | Not Active | Not Active | Not Active | Not Active | Not Active | Not Active | Not Active | Not Active |  |  | 63 | 40
NC(=O)c1cccc(N)c1 [3-AMINOBENZAMIDE] | Not Active | Not Active | Not Active | Not Active | Not Active | Not Active | Not Active | Not Active | Not Active | Not Active |  |  |  | 
C[C@H]1O[C@H](O[C@H]2[C@H](O)[C@@H](O)[C@@H](O[C@H]3[C@H](O)[C@@H](O)C(O)O[C@@H]3CO)O[C@@H]2CO)[C@H](O)[C@@H](O)[C@@H]1N[C@H]1C=C(CO)[C@@H](O)[C@H](O)[C@H]1O (some centres not stated) [ACARBOSE] | Not Active | Not Active | Not Active | Not Active | Not Active | Not Active | Not Active | Not Active | Not Active | Not Active |  |  |  | 
CC[C@H]1[C@@H]2C[C@H]3[C@@H]4N(C)c5ccccc5[C@]45C[C@@H]([C@@H]2[C@H]5O)N3[C@@H]1O [AJMALINE] | Not Active | Not Active | Not Active | Not Active | Not Active | Not Active | Not Active | Not Active | Not Active | Not Active |  |  |  | 
NC12CC3CC(CC(C3)C1)C2 [AMANTADINE] | Not Active | Not Active | Not Active | Not Active | Not Active | Not Active | Not Active | Not Active |  |  |  |  |  | 
NCCCNCCSP(=O)(O)O [AMIFOSTINE] | Not Active | Not Active | Not Active | Not Active | Not Active | Not Active | Not Active | Not Active | Not Active | Not Active |  |  |  | 
CN(C)CCC=C1c2ccccc2CCc2ccccc21 [AMITRIPTYLINE] |  | Not Active | Not Active |  |  | Not Active | Not Active | Not Active | Not Active | Not Active | 840 | 816 |  | 
CC(=O)Oc1ccccc1C(=O)O [ASPIRIN] | Not Active | Not Active | Not Active | Not Active | Not Active | Not Active | Not Active | Not Active | Not Active | Not Active |  |  |  | 
CC(C)c1c(C(=O)Nc2ccccc2)c(-c2ccccc2)c(-c2ccc(F)cc2)n1CC[C@@H](O)C[C@@H](O)CC(=O)O [ATORVASTATIN] | Not Active | Not Active | Not Active | Not Active | Not Active | Not Active | Not Active | Not Active |  |  |  |  |  | 
CC(=O)OC[C@H]1O[C@@H](n2ncc(=O)[nH]c2=O)[C@H](OC(C)=O)[C@@H]1OC(C)=O [AZARIBINE] | Not Active | Not Active | Not Active | Not Active | Not Active | Not Active | Not Active | Not Active | Not Active | Not Active |  |  |  | 
C[C@H]1[C@H](NC(=O)/C(=N\OC(C)(C)C(=O)O)c2csc(N)n2)C(=O)N1S(=O)(=O)O [AZTREONAM] | Not Active | Not Active | Not Active | Not Active | Not Active | Not Active | Not Active | Not Active | Not Active | Not Active |  |  |  | 
Cn1c(=O)c2c(ncn2C)n(C)c1=O [CAFFEINE] | Not Active | Not Active | Not Active | Not Active | Not Active | Not Active | Not Active |  | Not Active | Not Active |  |  |  | 
CC(C)C[C@H]1C(=O)N2CCC[C@H]2[C@]2(O)O[C@](NC(=O)[C@@H]3C=C4c5cccc6[nH]cc(c56)C[C@H]4N(C)C3)(C(C)C)C(=O)N12 [ERGOCRYPTINE] |  | Not Active | Not Active | Not Active | Not Active | Not Active | Not Active | Not Active |  |  |  |  | 13 | 8.22
CC(C)(C(=O)O)c1ccc(C(O)CCCN2CCC(C(O)(c3ccccc3)c3ccccc3)CC2)cc1 (configuration not stated) [FEXOFENADINE] | Not Active | Not Active | Not Active | Not Active | Not Active | Not Active | Not Active | Not Active |  |  |  |  |  | 
CC(=O)OCC(=O)[C@@]12OC(C)(C)O[C@@H]1C[C@H]1[C@@H]3C[C@H](F)C4=CC(=O)C=C[C@]4(C)[C@@]3(F)[C@@H](O)C[C@@]12C [FLUOCINONIDE] | Not Active | Not Active | Not Active | Not Active | Not Active | Not Active | Not Active | Not Active |  |  |  |  |  | 
CCC1=C(C)CN(C(=O)NCCc2ccc(S(=O)(=O)NC(=O)N[C@H]3CC[C@H](C)CC3)cc2)C1=O [GLIMEPIRIDE] | Not Active | Not Active | Not Active | Not Active | Not Active | Not Active | Not Active | Not Active |  |  |  |  |  | 
N[C@@H](Cn1ccc(=O)c(O)c1)C(=O)O [L-MIMOSINE] | Not Active | Not Active | Not Active | Not Active | Not Active | Not Active | Not Active | Not Active |  |  |  |  |  | 
CC(C)(C)NCC(O)COc1cccc2c1CC(O)C(O)C2 (configuration not stated) [NADOLOL] | Not Active | Not Active | Not Active | Not Active | Not Active | Not Active | Not Active | Not Active |  |  |  |  |  | 
C[C@@H]1C/C=C/C=C/C=C/C=C/[C@H](O[C@@H]2O[C@H](C)[C@@H](O)[C@H](N)[C@@H]2O)C[C@@H]2O[C@](O)(C[C@@H](O)C[C@H]3O[C@@H]3/C=C/C(=O)O1)C[C@H](O)[C@H]2C(=O)O [NATAMYCIN] | Not Active | Not Active | Not Active | Not Active | Not Active | Not Active | Not Active | Not Active |  |  |  |  |  | 
COc1ccc2c(c1OC)C(=O)O[C@@H]2[C@H]1c2c(cc3c(c2OC)OCO3)CCN1C [NOSCAPINE] | Not Active | Not Active | Not Active | Not Active | Not Active | Not Active | Not Active | Not Active |  |  |  |  |  | 
N=C(N)c1ccc(OCCCCCOc2ccc(C(=N)N)cc2)cc1 [PENTAMIDINE] | Not Active | Not Active | Not Active |  |  | Not Active | Not Active | Not Active |  |  | 1390 | 1350 |  | 
NNCCc1ccccc1 [PHENELZINE] | Not Active | Not Active | Not Active | Not Active | Not Active | Not Active | Not Active | Not Active |  |  |  |  |  | 
